Measured values taken from US20220339249A1, “COMPOSITE BIOMARKER FOR CANCER THERAPY” (Bristol-Myers Squibb Company, priority 2019, published 2022).

How the values were obtained:
tumors = test: Response to nivolumab monotherapy (CheckMate trials) by TDO2 expression; format: in vivo, human; settings: immuno-oncology naïve patients
Protocol: TDO2 expression was determined by median. All tumors are […] from the biomarker cohort (Clinical Trial No. NCT02658890). Nivolumab monotherapy data is from CheckMate trials. NE=not evaluable; PD=progressive disease; PR=partial response; SCCHN=squamous cell carcinoma of the head and neck; SD=stable disease; TDO2=tryptophan 2,3-dioxygenase 2.
Therefore, the association between TDO2 expression and clinical response was evaluated. High or low TDO2 expression levels were determined by the median. Based on the objective response rate, 26% of patients with low TDO2 expression responded to treatment while only 13% of patients with high TDO2 expression responded to treatment (TABLE 4).

[1] = monotherapy, every two weeks; MTD not reached; cited from earlier work
TDO2 = TDO2 (Homo sapiens, UniProt P48775); settings: cited from earlier work
Sequence of TDO2 (P48775 whole entry): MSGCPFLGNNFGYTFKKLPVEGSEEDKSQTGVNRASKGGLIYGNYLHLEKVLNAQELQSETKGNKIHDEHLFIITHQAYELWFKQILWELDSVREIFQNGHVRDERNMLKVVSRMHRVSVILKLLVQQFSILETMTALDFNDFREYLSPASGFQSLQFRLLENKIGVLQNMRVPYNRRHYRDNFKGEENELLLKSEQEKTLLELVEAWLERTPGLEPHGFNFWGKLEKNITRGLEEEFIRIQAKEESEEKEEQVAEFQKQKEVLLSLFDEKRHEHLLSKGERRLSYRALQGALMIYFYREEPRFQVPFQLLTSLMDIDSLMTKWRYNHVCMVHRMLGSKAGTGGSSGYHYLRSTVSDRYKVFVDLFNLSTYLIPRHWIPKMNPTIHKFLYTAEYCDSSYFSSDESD

Molecule | association between TDO2 expression and response (tumors) | maximum tolerated dose (MTD) [1] | inhibition of TDO2 enzymatic activity (TDO2)
nivolumab | No association | > 10 mg/kg | –
C[C@@H](C(=O)Nc1ccc(Cl)cc1)[C@H]1CC[C@@H](c2ccnc3ccc(F)cc32)CC1 [linrodostat, (2R)—N-(4-chlorophenyl)-2-(cis-4-(6-fluoroquinolin-4-yl)cyclohexyl)propanamide] | – | – | not TDO2 enzymatic activity
